# Columns and labels:
# [1] = molecular target: T1, HiBit-BRG1 fusion protein (Homo sapiens, UniProt P51532); test: HiBiT-BRG1 cell-based degradation assay (Nano-Glo HiBiT Lytic Detection, 24 h); settings: HeLa cells expressing HiBit-BRG1 and LgBit; for DC50: read-out: BRG1 HiBit Degradation IC50; for Dmax: HeLa, top dose 30 μM, read-out: BRG1 HiBit Degradation Maximum measured
# T1 construct: expressed in transfected cells
# Summary of the method: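 Stable HeLa line expressing HiBiT-BRG1 and LgBiT, seeded at 5000 cells/well; luminescence read after lytic Nano-Glo HiBiT reagent and 10 min shaking at RT. % degradation normalised between DMSO (high control) and 2 μM reference BRM/BRG1 degrader (low control).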
# HiBit-BRM fusion protein = molecular target: T2, HiBit-BRM fusion protein (Homo sapiens, UniProt P51531); test: HiBiT-BRM cell-based degradation assay (Nano-Glo HiBiT Lytic Detection, 24 h); settings: HeLa cells expressing HiBiT-BRM; for DC50: read-out: BRM HiBit Degradation IC50; for BRM HiBit Degradation Maximum measured: top dose 30 μM
# T2 construct: expressed in transfected cells
# T2 sequence (P51531 whole entry, the tested form may be a part): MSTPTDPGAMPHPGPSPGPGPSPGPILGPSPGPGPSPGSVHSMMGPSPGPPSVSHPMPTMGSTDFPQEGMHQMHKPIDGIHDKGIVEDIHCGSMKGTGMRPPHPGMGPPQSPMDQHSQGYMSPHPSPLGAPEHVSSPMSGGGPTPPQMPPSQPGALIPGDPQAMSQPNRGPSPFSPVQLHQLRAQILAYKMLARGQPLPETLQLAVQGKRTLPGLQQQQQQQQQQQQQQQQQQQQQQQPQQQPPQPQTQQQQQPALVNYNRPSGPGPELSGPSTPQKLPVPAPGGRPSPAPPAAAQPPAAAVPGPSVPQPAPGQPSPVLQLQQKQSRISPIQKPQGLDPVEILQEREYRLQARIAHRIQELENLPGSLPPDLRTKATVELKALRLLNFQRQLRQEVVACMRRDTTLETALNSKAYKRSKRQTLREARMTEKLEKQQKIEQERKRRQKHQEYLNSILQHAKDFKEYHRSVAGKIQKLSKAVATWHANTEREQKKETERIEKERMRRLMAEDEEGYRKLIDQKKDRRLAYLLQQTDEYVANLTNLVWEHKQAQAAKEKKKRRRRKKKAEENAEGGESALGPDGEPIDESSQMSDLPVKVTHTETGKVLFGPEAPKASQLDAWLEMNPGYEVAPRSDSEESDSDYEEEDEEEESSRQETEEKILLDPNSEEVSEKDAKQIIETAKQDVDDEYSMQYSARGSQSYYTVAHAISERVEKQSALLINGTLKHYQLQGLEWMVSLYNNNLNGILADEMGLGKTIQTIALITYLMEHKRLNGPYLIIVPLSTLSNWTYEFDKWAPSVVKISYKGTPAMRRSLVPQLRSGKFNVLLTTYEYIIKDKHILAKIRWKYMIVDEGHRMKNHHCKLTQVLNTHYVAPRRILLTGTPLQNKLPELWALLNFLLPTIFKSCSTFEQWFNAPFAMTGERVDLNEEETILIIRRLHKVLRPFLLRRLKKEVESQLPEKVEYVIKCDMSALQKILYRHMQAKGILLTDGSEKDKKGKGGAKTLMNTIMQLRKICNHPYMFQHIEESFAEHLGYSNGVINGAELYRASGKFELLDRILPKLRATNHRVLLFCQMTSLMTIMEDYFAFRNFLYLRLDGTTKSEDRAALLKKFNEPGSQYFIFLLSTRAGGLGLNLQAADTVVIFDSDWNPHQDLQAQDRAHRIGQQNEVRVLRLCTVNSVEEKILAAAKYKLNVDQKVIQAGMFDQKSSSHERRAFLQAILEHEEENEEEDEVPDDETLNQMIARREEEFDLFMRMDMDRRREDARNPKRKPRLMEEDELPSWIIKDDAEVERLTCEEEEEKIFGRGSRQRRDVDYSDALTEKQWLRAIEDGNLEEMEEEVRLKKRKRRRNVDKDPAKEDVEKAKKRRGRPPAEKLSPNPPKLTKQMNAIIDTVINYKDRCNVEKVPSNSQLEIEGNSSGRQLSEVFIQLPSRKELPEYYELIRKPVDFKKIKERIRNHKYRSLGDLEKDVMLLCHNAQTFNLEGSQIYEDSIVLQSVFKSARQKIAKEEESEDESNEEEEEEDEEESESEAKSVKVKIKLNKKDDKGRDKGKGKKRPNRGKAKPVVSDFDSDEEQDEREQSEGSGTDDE
# Summary of the method: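 HeLa cells stably expressing HiBiT-BRM were treated for 24 h with compounds (10-point 3-fold dilutions, 30 μM final top dose, in duplicate). HiBiT was detected by lytic LgBiT complementation luminescence. % degradation was normalized to DMSO (high control) and 2 μM of a reference BRM/BRG1 degrader (low control).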
# T1 sequence (P51532 whole entry, the tested form may be a part): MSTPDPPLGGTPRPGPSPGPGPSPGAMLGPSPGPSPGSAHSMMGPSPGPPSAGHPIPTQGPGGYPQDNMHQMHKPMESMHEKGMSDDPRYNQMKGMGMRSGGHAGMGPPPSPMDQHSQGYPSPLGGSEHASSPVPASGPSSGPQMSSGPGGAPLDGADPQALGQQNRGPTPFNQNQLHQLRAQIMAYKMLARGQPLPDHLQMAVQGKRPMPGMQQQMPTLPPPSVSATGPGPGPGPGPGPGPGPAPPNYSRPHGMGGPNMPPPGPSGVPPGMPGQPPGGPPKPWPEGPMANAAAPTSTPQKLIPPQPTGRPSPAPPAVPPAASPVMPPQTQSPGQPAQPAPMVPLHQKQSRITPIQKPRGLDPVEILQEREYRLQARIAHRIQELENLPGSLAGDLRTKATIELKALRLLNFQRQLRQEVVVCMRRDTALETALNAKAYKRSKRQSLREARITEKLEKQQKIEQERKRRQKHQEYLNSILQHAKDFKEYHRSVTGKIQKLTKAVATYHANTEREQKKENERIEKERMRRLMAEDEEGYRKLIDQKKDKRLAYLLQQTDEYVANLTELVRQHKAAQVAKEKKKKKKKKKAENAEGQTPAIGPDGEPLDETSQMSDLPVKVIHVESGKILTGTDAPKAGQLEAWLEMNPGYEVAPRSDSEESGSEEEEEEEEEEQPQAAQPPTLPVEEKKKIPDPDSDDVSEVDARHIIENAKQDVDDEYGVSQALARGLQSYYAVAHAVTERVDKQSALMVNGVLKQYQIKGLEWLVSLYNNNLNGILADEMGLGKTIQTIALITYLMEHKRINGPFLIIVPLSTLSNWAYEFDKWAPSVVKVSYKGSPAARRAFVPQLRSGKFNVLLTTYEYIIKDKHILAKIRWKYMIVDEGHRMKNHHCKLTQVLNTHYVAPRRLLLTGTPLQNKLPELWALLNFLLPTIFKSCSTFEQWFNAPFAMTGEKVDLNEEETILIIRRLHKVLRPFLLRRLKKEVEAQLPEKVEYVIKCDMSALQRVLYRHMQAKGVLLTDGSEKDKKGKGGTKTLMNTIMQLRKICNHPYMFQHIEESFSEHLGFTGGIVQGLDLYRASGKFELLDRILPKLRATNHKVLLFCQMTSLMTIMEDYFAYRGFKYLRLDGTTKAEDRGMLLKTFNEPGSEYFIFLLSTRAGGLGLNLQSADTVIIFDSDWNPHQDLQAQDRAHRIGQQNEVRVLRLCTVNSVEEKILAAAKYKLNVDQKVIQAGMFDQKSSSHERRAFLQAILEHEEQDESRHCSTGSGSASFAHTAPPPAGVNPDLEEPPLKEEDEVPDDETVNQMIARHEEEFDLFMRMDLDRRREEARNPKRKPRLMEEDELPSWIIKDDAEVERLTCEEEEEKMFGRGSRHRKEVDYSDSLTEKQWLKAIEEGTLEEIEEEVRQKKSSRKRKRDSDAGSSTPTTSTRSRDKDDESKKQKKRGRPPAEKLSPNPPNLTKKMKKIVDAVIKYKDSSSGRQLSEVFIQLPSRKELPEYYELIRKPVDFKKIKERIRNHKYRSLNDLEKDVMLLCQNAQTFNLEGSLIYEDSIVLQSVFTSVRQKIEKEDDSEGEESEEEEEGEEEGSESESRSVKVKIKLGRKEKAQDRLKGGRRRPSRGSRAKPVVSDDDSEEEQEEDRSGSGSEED
DC50 [1],Dmax [1],DC50 (HiBit-BRM fusion protein),BRM HiBit Degradation Maximum measured (HiBit-BRM fusion protein),SMILES
> 10 µM,< 50%,> 10 µM,C (‘C’ = Maximum degradation <50%),"CS(=O)(=O)n1ccc(C(=O)N[C@@H](CCCCNC(=O)CCCCCCOc2cccc3c2C(=O)N(C2CCC(=O)NC2=O)C3=O)C(=O)Nc2nc(-c3ccccc3)cs2)c1 (stereo partly drawn) [Compound 290, 7-[[2-(2,6-dioxopiperidin-3-yl)-1,3-dioxoisoindol-4-yl]oxy]-N-[(5S)-5-[(1-methanesulfonylpyrrol-3-yl)formamido]-5-[(4-phenyl-1,3-thiazol-2-yl)carbamoyl]pentyl]heptanamide]"
> 10 µM,< 50%,> 10 µM,C (‘C’ = Maximum degradation <50%),"CS(=O)(=O)n1ccc(C(=O)N[C@@H](CCCCNC(=O)CCOCCOCCOc2ccc3c(c2)C(=O)N(C2CCC(=O)NC2=O)C3=O)C(=O)Nc2nc(-c3ccccc3)cs2)c1 (stereo partly drawn) [Compound 291, (2S)-6-[3-[2-(2-[[2-(2,6-dioxopiperidin-3-yl)-1,3-dioxoisoindol-5-yl]oxy]ethoxy)ethoxy]propanamido]-2-[(1-methanesulfonylpyrrol-3-yl)formamido]-N-(4-phenyl-1,3-thiazol-2-yl)hexanamide]"
> 10 µM,< 50%,> 10 µM,C (‘C’ = Maximum degradation <50%),"CS(=O)(=O)n1ccc(C(=O)N[C@@H](CCCCNC(=O)CCOCCOCCNc2ccc3c(c2)C(=O)N(C2CCC(=O)NC2=O)C3=O)C(=O)Nc2nc(-c3ccccc3)cs2)c1 (stereo partly drawn) [Compound 292, (2S)-6-[3-[2-(2-[[2-(2,6-dioxopiperidin-3-yl)-1,3-dioxoisoindol-5-yl]amino]ethoxy)ethoxy]propanamido]-2-[(1-methanesulfonylpyrrol-3-yl)formamido]-N-(4-phenyl-1,3-thiazol-2-yl)hexanamide]"
> 10 µM,< 50%,> 10 µM,C (‘C’ = Maximum degradation <50%),"CS(=O)(=O)n1ccc(C(=O)N[C@@H](CCCCNC(=O)CCN2CC3(C2)CN(c2ccc4c(c2)C(=O)N(C2CCC(=O)NC2=O)C4=O)C3)C(=O)Nc2nc(-c3ccccc3)cs2)c1 (stereo partly drawn) [Compound 294, (2S)-6-(3-[6-[2-(2,6-dioxopiperidin-3-yl)-1,3-dioxoisoindol-5-yl]-2,6-diazaspiro[3.3]heptan-2-yl]propanamido)-2-[(1-methanesulfonylpyrrol-3-yl)formamido]-N-(4-phenyl-1,3-thiazol-2-yl)hexanamide]"
> 10 µM,< 50%,> 10 µM,C (‘C’ = Maximum degradation <50%),"CS(=O)(=O)n1ccc(C(=O)N[C@@H](CCCCNC(=O)CCCCOc2cccc3c2C(=O)N(C2CCC(=O)NC2=O)C3=O)C(=O)Nc2nc(-c3ccccc3)cs2)c1 (stereo partly drawn) [Compound 295, (2S)-6-(5-[[2-(2,6-dioxopiperidin-3-yl)-1,3-dioxoisoindol-4-yl]oxy]pentanemido)-2-[(1-methanesulfonylpyrrol-3-yl)formamido]-N-(4-phenyl-1,3-thiazol-2-yl)hexanamide]"
> 10 µM,< 50%,> 10 µM,C (‘C’ = Maximum degradation <50%),"CS(=O)(=O)n1ccc(C(=O)N[C@@H](CCCCNC(=O)CCCCCCCCCCNc2cccc3c2C(=O)N(C2CCC(=O)NC2=O)C3=O)C(=O)Nc2nc(-c3ccccc3)cs2)c1 (stereo partly drawn) [Compound 296, 11-[[2-(2,6-dioxopiperidin-3-yl)-1,3-dioxoisoindol-4-yl]amino]-N-[(5S)-5-[(1-methanesulfonylpyrrol-3-yl)formamido]-5-[(4-phenyl-1,3-thiazol-2-yl)carbamoyl]pentyl]undecanamide]"
> 10 µM,< 50%,> 10 µM,C (‘C’ = Maximum degradation <50%),"CS(=O)(=O)n1ccc(C(=O)N[C@@H](CCCCNC(=O)CCN2CCN(c3ccc4c(c3)C(=O)N(C3CCC(=O)NC3=O)C4=O)CC2)C(=O)Nc2nc(-c3ccccc3)cs2)c1 (stereo partly drawn) [Compound 297, N-((2S)-6-(3-(4-(2-(2,6-dioxopiperidin-3-yl)-1,3-dioxoisoindolin-5-yl)piperazin-1-yl)propanamido)-1-oxo-1-((4-phenylthiazol-2-yl)amino)hexan-2-yl)-1-(methylsulfonyl)-1H-pyrrole-3-carboxamide]"

# From US12662479B2 (Foghorn Therapeutics Inc., priority 2020, dated 2026)
